Legend:
Assay type in all cases: in vivo
[1] = tested on: Abutilon theophrasti (ABUTH); assay: Herbicidal post-emergence action, 1280 g/ha (Table B1); conditions: visual assessment after ca. 3 weeks vs untreated controls
Source text: (§1) Seeds of mono- and dicotyledonous weed plants were sown in plastic pots (double sowings with one species of mono- and one species of dicotyledonous weed plants per pot), in sandy loam, covered with soil and grown under controlled growth conditions. 2 to 3 weeks after sowing, the test plants were sprayed in the single-leaf stage. The compounds according to the invention, formulated in the form of wettable powders (WP) or as emulsifiable concentrates (EC), were sprayed onto the green plant parts as an aqueous suspension or as an emulsion, with the addition of 0.5% of an additive, at an application rate of 600 litres of water per hectare (converted). The test plants were placed in the greenhouse for ca. 3 weeks under optimum growth conditions, and then the effect of the preparations was assessed visually in comparison with untreated controls (herbicidal effect in percent (%): 100% effect=plants have died, 0% effect=as control plants). Tables B1 to B11 below, show the effects of selected compounds of the general formula (I) according to Table 1 on various harmful plants using an application rate corresponding to 1280 g/ha obtained by the experimental procedure mentioned above.

[2] = tested on: Stellaria media (STEME); assay: Herbicidal post-emergence action, 320 g/ha, STEME; conditions: visual grading after ca. 3 weeks
Source text: as §1, with “plants).” for “plants). Tables B1 to B11 below, show the effects of selected compounds of the general formula (I) according to Table 1 on various harmful plants using an application rate corresponding to 1280 g/ha obtained by the experimental procedure mentioned above.”
(§2) Tables D1 to D8 below, show the effects of selected compounds of the general formula (I) according to Table 1 on various harmful plants using an application rate corresponding to 320 g/ha obtained by the experimental procedure mentioned above.

[3] = tested on: Stellaria media (STEME); assay: Herbicidal post-emergence action, 1280 g/ha (Table B9); conditions: visual assessment after ca. 3 weeks vs untreated controls
Source text: as §1

[4] = tested on: Stellaria media (STEME); assay: Herbicidal pre-emergence action, 1280 g/ha (Table A9); conditions: visual grading after ca. 3 weeks vs untreated controls
Source text: (§3) Seeds of mono- and dicotyledonous weed plants were sown in plastic pots (double sowings with one species of mono- and one species of dicotyledonous weed plants per pot), in sandy loam, and covered with soil. The compounds according to the invention, formulated in the form of wettable powders (WP) or as emulsifiable concentrates (EC), were applied to the surface of the covering soil as an aqueous suspension or as an emulsion, with the addition of 0.5% of an additive, at an application rate of 600 litres of water per hectare (converted). Following treatment, the pots were placed in a greenhouse and kept under optimum growth conditions for the test plants. The visual grading of the damage to the test plants was carried out after ca. 3 weeks in comparison to untreated controls (herbicidal effect in percent (%): 100% effect=plants have died, 0% effect=as control plants). Tables A1 to A11 below, show the effects of selected compounds of the general formula (I) according to Table 1 on various harmful plants and an application rate corresponding to 1280 g/ha obtained by the experimental procedure mentioned above.

[5] = tested on: Kochia scoparia (KCHSC); assay: Herbicidal post-emergence action, 320 g/ha, KCHSC; conditions: visual grading after ca. 3 weeks
Source text: as §1, with “plants).” for “plants). Tables B1 to B11 below, show the effects of selected compounds of the general formula (I) according to Table 1 on various harmful plants using an application rate corresponding to 1280 g/ha obtained by the experimental procedure mentioned above.”
as §2

[6] = tested on: Veronica persica (VERPE); assay: Herbicidal post-emergence action, 1280 g/ha, VERPE; conditions: visual grading vs untreated controls
Source text: as §1, with “plants).” for “plants). Tables B1 to B11 below, show the effects of selected compounds of the general formula (I) according to Table 1 on various harmful plants using an application rate corresponding to 1280 g/ha obtained by the experimental procedure mentioned above.”
(§4) Tables B1 to B11 below, show the effects of selected compounds of the general formula (I) according to Table 1 on various harmful plants using an application rate corresponding to 1280 g/ha obtained by the experimental procedure mentioned above.

[7] = tested on: Matricaria inodora (MATIN); assay: Herbicidal post-emergence action, 1280 g/ha (Table B6); conditions: visual assessment after ca. 3 weeks vs untreated controls
Source text: as §1

[8] = tested on: Matricaria inodora (MATIN); assay: Herbicidal pre-emergence action, 1280 g/ha (Table A6); conditions: visual grading after ca. 3 weeks vs untreated controls
Source text: as §3

[9] = tested on: Amaranthus retroflexus (AMARE); assay: Herbicidal pre-emergence action, 1280 g/ha (Table A11); conditions: visual grading after ca. 3 weeks vs untreated controls
Source text: as §3

[10] = tested on: Kochia scoparia (KCHSC); assay: Herbicidal post-emergence action, 1280 g/ha (Table B4); conditions: visual assessment after ca. 3 weeks vs untreated controls
Source text: as §1

[11] = tested on: Amaranthus retroflexus (AMARE); assay: Herbicidal post-emergence action, 1280 g/ha, AMARE; conditions: visual grading vs untreated controls
Source text: as §1, with “plants).” for “plants). Tables B1 to B11 below, show the effects of selected compounds of the general formula (I) according to Table 1 on various harmful plants using an application rate corresponding to 1280 g/ha obtained by the experimental procedure mentioned above.”
as §4

[12] = tested on: Amaranthus retroflexus (AMARE); assay: Herbicidal post-emergence action, 320 g/ha, AMARE; conditions: visual grading after ca. 3 weeks
Source text: as §1, with “plants).” for “plants). Tables B1 to B11 below, show the effects of selected compounds of the general formula (I) according to Table 1 on various harmful plants using an application rate corresponding to 1280 g/ha obtained by the experimental procedure mentioned above.”
as §2

[13] = tested on: Abutilon theophrasti (ABUTH); assay: Herbicidal post-emergence action, 320 g/ha, ABUTH; conditions: visual grading after ca. 3 weeks
Source text: as §1, with “plants).” for “plants). Tables B1 to B11 below, show the effects of selected compounds of the general formula (I) according to Table 1 on various harmful plants using an application rate corresponding to 1280 g/ha obtained by the experimental procedure mentioned above.”
as §2

[14] = tested on: Lolium rigidum (LOLRI); assay: Herbicidal pre-emergence action, 1280 g/ha (Table A5); conditions: visual grading after ca. 3 weeks vs untreated controls
Source text: as §3

[15] = tested on: Lolium rigidum (LOLRI); assay: Herbicidal post-emergence action, 1280 g/ha (Table B5); conditions: visual assessment after ca. 3 weeks vs untreated controls
Source text: as §1

[16] = tested on: Kochia scoparia (KCHSC); assay: Herbicidal pre-emergence action, 1280 g/ha (Table A4); conditions: visual grading after ca. 3 weeks vs untreated controls
Source text: as §3

[17] = tested on: Stellaria media (STEME); assay: Herbicidal pre-emergence action, 320 g/ha, STEME; conditions: visual grading after ca. 3 weeks
Source text: as §3, with “plants).” for “plants). Tables A1 to A11 below, show the effects of selected compounds of the general formula (I) according to Table 1 on various harmful plants and an application rate corresponding to 1280 g/ha obtained by the experimental procedure mentioned above.”
Tables C1 to C6 below, show the effects of selected compounds of the general formula (I) according to Table 1 on various harmful plants using an application rate corresponding to 320 g/ha obtained by the experimental procedure mentioned above.

[18] = tested on: Abutilon theophrasti (ABUTH); assay: Herbicidal pre-emergence action, 1280 g/ha (Table A1); conditions: visual grading after ca. 3 weeks vs untreated controls
Source text: as §3

[19] = tested on: Lolium rigidum (LOLRI); assay: Herbicidal pre-emergence action, 320 g/ha (Table C2); conditions: visual grading after ca. 3 weeks vs untreated controls
Source text: as §3, with “Tables C1” for “Tables A1”, “to C6” for “to A11”, “plants using” for “plants and”, “to 320” for “to 1280”

[20] = tested on: Matricaria inodora (MATIN); assay: Herbicidal post-emergence action, 320 g/ha, MATIN; conditions: visual grading after ca. 3 weeks
Source text: as §1, with “plants).” for “plants). Tables B1 to B11 below, show the effects of selected compounds of the general formula (I) according to Table 1 on various harmful plants using an application rate corresponding to 1280 g/ha obtained by the experimental procedure mentioned above.”
as §2

| SMILES | herbicidal effect ABUTH [1] | herbicidal effect STEME [2] | herbicidal effect STEME [3] | herbicidal effect STEME [4] | herbicidal effect KCHSC [5] | herbicidal effect VERPE [6] | herbicidal effect MATIN [7] | herbicidal effect MATIN [8] | herbicidal effect AMARE [9] | herbicidal effect KCHSC [10] | herbicidal effect AMARE [11] | herbicidal effect AMARE [12] | herbicidal effect ABUTH [13] | herbicidal effect LOLRI [14] | herbicidal effect LOLRI [15] | herbicidal effect KCHSC [16] | herbicidal effect STEME [17] | herbicidal effect ABUTH [18] | herbicidal effect LOLRI [19] | herbicidal effect MATIN [20] |
| --- | --- | --- | --- | --- | --- | --- | --- | --- | --- | --- | --- | --- | --- | --- | --- | --- | --- | --- | --- | --- |
| CCOC(=O)Oc1c(C)nn(C)c(=O)c1Oc1cc(F)cc(F)c1Br [Example I-098] | 90% | 90% | 90% | 100% | 90% | 90% | 90% | 100% | 100% | 90% | 100% | – | – | – | – | – | – | – | – | – |
| Cc1nn(C)c(=O)c(Oc2ccc(Cl)cc2Cl)c1O [Example I-019, 4-(2,4-dichlorophenoxy)-5-hydroxy-2,6-dimethyl-pyridazin-3-one] | 90% | – | 90% | 100% | 90% | 90% | 90% | – | – | 90% | 90% | 90% | 90% | 90% | – | – | – | – | – | – |
| CCOC(=O)Oc1c(C)nn(C)c(=O)c1Oc1ccccc1OC(F)F [Example I-074] | 100% | – | 100% | 90% | 90% | 90% | 90% | – | – | 90% | 100% | – | – | 90% | 90% | – | – | – | – | – |
| Cc1nn(C)c(=O)c(Oc2ccc(Cl)cc2C2CC2)c1O [Example I-035] | 90% | – | 90% | – | – | 90% | 90% | – | 90% | 90% | 90% | 90% | 90% | – | – | 100% | – | – | – | – |
| CCOC(=O)Oc1c(C)nn(C)c(=O)c1Oc1cc(Cl)cc(Cl)c1Cl [Example I-097] | – | 90% | 90% | 100% | – | – | – | – | 100% | – | 90% | – | – | 100% | – | – | 90% | 100% | – | – |
| Cc1nn(C)c(=O)c(Oc2ccccc2Br)c1O [Example I-011] | – | – | – | 100% | – | – | – | 90% | 100% | 90% | 90% | – | – | 90% | – | 100% | 90% | – | – | – |
| Cc1nn(C)c(=O)c(Oc2cc(Cl)cc(Cl)c2Cl)c1O [Example I-096] | – | 90% | 100% | 100% | – | – | – | 100% | 90% | – | 90% | – | – | 90% | – | – | 100% | – | 90% | – |
| Cc1nn(C)c(=O)c(Oc2ccc(Cl)cc2Cl)c1OC(=O)C(C)(C)C [Example I-049] | 90% | – | – | 100% | 90% | 90% | 90% | – | – | 90% | 100% | – | – | – | – | 90% | – | – | – | – |
| Cc1nn(C)c(=O)c(Oc2cc(F)c(F)cc2Br)c1OC(=O)C(C)C [Example I-094] | 90% | – | – | – | – | 90% | 90% | 100% | 100% | 90% | 100% | – | – | – | – | – | – | – | – | 90% |

— patent US20240239755A1, “SUBSTITUTED PYRIDAZINONES, SALTS OR N-OXIDES THEREOF AND THEIR USE AS HERBICIDALLY ACTIVE SUBSTANCES” (Bayer Aktiengesellschaft, priority 2021, published 2024)
